Laboratory results from US8022086B2, “Therapeutic agent for glomerular disease” (Kowa Co., Ltd., priority 2004, dated 2011).

Tested on: rat model of glomerular basement membrane (GBM) nephritis
Experiment: Pharmacological test employing rat model of glomerular basement membrane (GBM) nephritis: urinary total protein excretion
Format: in vivo, Wistar male rats
Settings: anti-GBM antibody-induced nephritis rats, repeated oral administration for two weeks; for 18-hour urinary total protein excretion: pitavastatin calcium 30 mg/kg, candesartan cilexetil 3 mg/kg, control group 316, N=7; for 18-hour urinary total protein excretion compared with control group (significance): versus no drug administration group
Procedure: Wistar male rats (six weeks old, purchased from Japan Laboratory Animals, Inc.) were quarantined and acclimatized for four days, and employed for the test. Firstly, a rat GBM rabbit IgG antibody was prepared, and then an antibody solution was adjusted with saline upon use to be 31 mg IgG antibody/mL saline. Thereafter, each of the rats was fixated under unanesthetized conditions, and the antibody solution was intravenously administered (1 mL/kg) through the tail vein, whereby progressive renal disorder was induced. The resultant rats were divided into four groups (N=7 for each), and immediately thereafter, the below-described test was carried out. […] In the drug administration groups, the respective drugs were repeatedly orally administered for two weeks. In each of the groups, after completion of two-week drug administration, urine was collected from each rat for 18 hours in a metabolic cage (Product of […] Co., Ltd.), and urinary total protein excretion was measured.

Compound	18-hour urinary total protein excretion	18-hour urinary total protein excretion compared with control group (significance)
O=C(O)C[C@H](O)C[C@H](O)/C=C/c1c(C2CC2)nc2ccccc2c1-c1ccc(F)cc1 [pitavastatin calcium, (3R, 5S, 6B)-7-[2-cyclopropyl-4-(4-fluorophenyl)-3-quinolyl]-3,5-dihydroxy-6-heptenoic acid]	138 mg/18 h/kg	lower, but not significantly lower
CCOc1nc2cccc(C(=O)OC(C)OC(=O)OC3CCCCC3)c2n1Cc1ccc(-c2ccccc2-c2nnn[nH]2)cc1 (stereo not shown) [candesartan cilexetil, 1-(cyclohexyloxycarbonyloxy)ethyl 2-ethoxy-1-[[2′-(1H-tetrazol-5-yl)biphenyl-4-yl]methyl]-1H-benzimidazole-7-carboxylate]	92 mg/18 h/kg	lower, but not significantly lower
